Results as given in ChEMBL document CHEMBL4368907 (J Med Chem, 2019).
Numbered stars: 1 amine (or outer) side, 2 acyl side, 3 side chain; on linkers, the order of the positions; unused ones are H or OH. Square brackets hold non-standard residues; d marks the D form. Side chains are listed from the residue outwards. Peptide text beside a SMILES is read from it. * marks the point of attachment. Phe(4-CH2SO3H) = N[C@@H](Cc1ccc(CS(=O)(=O)O)cc1)C(=O)O; Ala(indol-2-yl) = N[C@@H](Cc1cc2ccccc2[nH]1)C(=O)O; sY = N[C@@H](Cc1ccc(OS(=O)(=O)O)cc1)C(=O)O; C18 diacid = O=C(O)CCCCCCCCCCCCCCCCC(=O)*; C16 diacid = O=C(O)CCCCCCCCCCCCCCC(=O)*; γGlu = O=C(O)[C@H](CCC(=O)[*:2])N[*:1]; NMeF = CN[C@@H](Cc1ccccc1)C(=O)O; NMeD = CN[C@@H](CC(=O)O)C(=O)O; dNMeD = CN[C@H](CC(=O)O)C(=O)O; Nle = CCCC[C@H](N)C(=O)O; X1 = O=C(Cc1ccc(O)cc1)*; AEEA = NCCOCCOCC(=O)O

How the values were obtained:
[1] = target: T1, Cholecystokinin receptor type A (Homo sapiens, UniProt P32238); assay: Displacement of [125I]-CCK-8 from human CCK1R expressed in human 1321N1 cell membranes after 2 hrs by SPA assay
T1 sequence (P32238 whole entry): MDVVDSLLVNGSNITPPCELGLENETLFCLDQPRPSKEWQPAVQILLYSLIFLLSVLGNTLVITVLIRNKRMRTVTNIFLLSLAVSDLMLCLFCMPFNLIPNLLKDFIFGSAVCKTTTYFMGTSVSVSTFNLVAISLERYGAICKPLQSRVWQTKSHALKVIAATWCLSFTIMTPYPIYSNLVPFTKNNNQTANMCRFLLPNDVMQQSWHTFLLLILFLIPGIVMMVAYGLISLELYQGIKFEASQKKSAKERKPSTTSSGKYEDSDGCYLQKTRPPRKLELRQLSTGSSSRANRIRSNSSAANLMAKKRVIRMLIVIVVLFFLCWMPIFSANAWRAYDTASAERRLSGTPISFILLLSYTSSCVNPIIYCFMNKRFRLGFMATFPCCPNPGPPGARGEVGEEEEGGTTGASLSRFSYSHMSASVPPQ

[2] = target: T1, Cholecystokinin receptor type A; assay: Agonist activity at human CCK1R expressed in human 1321N1 cells assessed as IP1 accumulation after 1 hr by HTRF assay; type: functional, cell-based
[3] = target: T2, Gastrin/cholecystokinin type B receptor (Homo sapiens, UniProt P32239); assay: Displacement of [125I]-CCK-8 from human CCK2R expressed in human 1321N1 cell membranes after 2 hrs by SPA assay
T2 sequence (P32239 whole entry): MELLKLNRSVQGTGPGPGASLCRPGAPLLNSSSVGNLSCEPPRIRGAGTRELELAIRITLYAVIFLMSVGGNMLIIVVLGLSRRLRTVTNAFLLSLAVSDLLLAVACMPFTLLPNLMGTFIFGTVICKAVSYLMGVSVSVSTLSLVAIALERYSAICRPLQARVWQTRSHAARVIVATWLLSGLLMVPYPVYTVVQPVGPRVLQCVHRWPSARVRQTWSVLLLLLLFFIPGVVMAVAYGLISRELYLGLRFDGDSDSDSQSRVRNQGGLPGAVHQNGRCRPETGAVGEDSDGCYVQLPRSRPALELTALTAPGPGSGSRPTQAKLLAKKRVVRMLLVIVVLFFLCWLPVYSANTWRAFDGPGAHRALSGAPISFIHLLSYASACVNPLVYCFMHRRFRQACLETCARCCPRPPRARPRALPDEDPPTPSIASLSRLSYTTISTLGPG

[4] = target: T2, Gastrin/cholecystokinin type B receptor; assay: Agonist activity at human CCK2R expressed in human 1321N1 cells assessed as IP1 accumulation after 1 hr by HTRF assay; type: functional, cell-based

| Structure (SMILES) | IC50 [1] [nM] | EC50 [2] [nM] | pIC50 [1] | pIC50 [3] | pEC50 [2] | pEC50 [4] | IC50 [3] [nM] | EC50 [4] [nM] |
| --- | --- | --- | --- | --- | --- | --- | --- | --- |
| CSCC[C@H](NC(=O)[C@H](Cc1c[nH]c2ccccc12)NC(=O)CNC(=O)[C@H](Cc1ccc(O)cc1)NC(=O)[C@H](C)NC(=O)[C@H](CCC(=O)O)NC(=O)[C@H](CCC(=O)O)NC(=O)[C@H](CCC(=O)O)NC(=O)[C@H](CCC(=O)O)NC(=O)[C@H](CCC(=O)O)NC(=O)[C@H](CC(C)C)NC(=O)[C@H](Cc1c[nH]c2ccccc12)NC(=O)[C@@H]1CCCN1C(=O)CNC(=O)[C@@H]1CCC(=O)N1)C(=O)N[C@@H](CC(=O)O)C(=O)N[C@@H](Cc1ccccc1)C(N)=O | 851 | 269 |  |  |  |  |  |  |
| CCCC[C@H](NC(=O)[C@H](Cc1c[nH]c2ccccc12)NC(=O)CNC(=O)[C@@H](CCCNC(=O)COCCOCCNC(=O)COCCOCCNC(=O)CC[C@H](NC(=O)CCCCCCCCCCCCCCCCC(=O)O)C(=O)O)NC(=O)Cc1ccc(O)cc1)C(=O)N(C)[C@H](CC(=O)O)C(=O)N(C)[C@@H](Cc1ccccc1)C(N)=O |  |  | 9.3 | 5.08 | 10.22 | < 6 |  |  |
| CCCC[C@H](NC(=O)[C@H](Cc1ccc(O)cc1)NC(=O)[C@H](CC(=O)O)NC(=O)COCCOCCNC(=O)COCCOCCNC(=O)CC[C@H](NC(=O)CCCCCCCCCCCCCCCCC(=O)O)C(=O)O)C(=O)NCC(=O)N[C@@H](Cc1c[nH]c2ccccc12)C(=O)N[C@@H](CCCCNC(=O)Nc1ccccc1C)C(=O)N[C@@H](CC(=O)O)C(=O)N(C)[C@@H](Cc1ccccc1)C(N)=O | 0.339 | 0.107 |  |  |  |  | 759 | 5.01 |
| CCCC[C@H](NC(=O)[C@H](Cc1c[nH]c2ccccc12)NC(=O)CNC(=O)[C@H](CC(C)C)NC(=O)[C@H](Cc1ccc(OS(=O)(=O)O)cc1)NC(=O)[C@H](CC(=O)O)NC(=O)COCCOCCNC(=O)COCCOCCNC(=O)CC[C@H](NC(=O)CCCCCCCCCCCCCCCCC(=O)O)C(=O)O)C(=O)N(C)[C@@H](CC(=O)O)C(=O)N[C@@H](Cc1ccccc1)C(N)=O |  |  |  |  |  |  | 245 | 1.55 |
| CCCC[C@H](NC(=O)[C@H](Cc1c[nH]c2ccccc12)NC(=O)CNC(=O)[C@H](CC(C)C)NC(=O)[C@H](Cc1ccc(OS(=O)(=O)O)cc1)NC(=O)[C@H](CC(=O)O)NC(=O)COCCOCCNC(=O)COCCOCCNC(=O)CC[C@H](NC(=O)CCCCCCCCCCCCCCCCC(=O)O)C(=O)O)C(=O)N(C)[C@H](CC(=O)O)C(=O)N[C@@H](Cc1ccccc1)C(N)=O |  |  |  |  |  |  | 5620 | 132 |
| CCCC[C@H](NC(=O)[C@H](Cc1c[nH]c2ccccc12)NC(=O)CNC(=O)[C@H](CC(C)C)NC(=O)[C@H](Cc1ccc(OS(=O)(=O)O)cc1)NC(=O)[C@H](CC(=O)O)NC(=O)COCCOCCNC(=O)COCCOCCNC(=O)CC[C@H](NC(=O)CCCCCCCCCCCCCCCCC(=O)O)C(=O)O)C(=O)N[C@@H](CC(=O)O)C(=O)N(C)[C@@H](Cc1ccccc1)C(N)=O | 0.0871 | 0.115 |  |  |  |  | 0.288 | 0.457 |
| CCCC[C@H](NC(=O)[C@H](Cc1c[nH]c2ccccc12)NC(=O)CNC(=O)[C@H](CC(C)C)NC(=O)[C@H](Cc1ccc(OS(=O)(=O)O)cc1)NC(=O)[C@H](CC(=O)O)NC(=O)COCCOCCNC(=O)COCCOCCNC(=O)CC[C@H](NC(=O)CCCCCCCCCCCCCCCCC(=O)O)C(=O)O)C(=O)N[C@@H](CC(=O)O)C(=O)N[C@@H](Cc1ccccc1)C(N)=O | 0.275 | 0.129 |  |  |  |  | 0.166 | 0.501 |
| CCCC[C@H](NC(=O)[C@H](Cc1c[nH]c2ccccc12)NC(=O)CNC(=O)[C@H](CC(C)C)NC(=O)[C@H](Cc1ccc(OS(=O)(=O)O)cc1)NC(=O)[C@H](CC(=O)O)NC(=O)COCCOCCNC(=O)COCCOCCNC(=O)CC[C@H](NC(=O)CCCCCCCCCCCCCCCCC(=O)O)C(=O)O)C(=O)N(C)[C@H](CC(=O)O)C(=O)N(C)[C@@H](Cc1ccccc1)C(N)=O | 0.0741 | 0.363 |  |  |  |  |  | 123 |
| CCCC[C@H](NC(=O)[C@H](Cc1cc2ccccc2[nH]1)NC(=O)CNC(=O)[C@H](CCCCNC(=O)COCCOCCNC(=O)COCCOCCNC(=O)CC[C@H](NC(=O)CCCCCCCCCCCCCCCCC(=O)O)C(=O)O)NC(=O)[C@H](Cc1ccc(OS(=O)(=O)O)cc1)NC(=O)[C@H](CC(=O)O)NC(C)=O)C(=O)N(C)[C@@H](CC(=O)O)C(=O)N(C)[C@@H](Cc1ccccc1)C(N)=O (Ac-D[sY]K([AEEA-AEEA-γGlu-C18 diacid])G[Ala(indol-2-yl)][Nle][NMeD][NMeF]-NH2) |  |  | 10.19 | 6.24 | 9.61 | 6.5 |  |  |
| CCCC[C@H](NC(=O)Cc1ccc(O)cc1)C(=O)NCC(=O)N[C@@H](Cc1c[nH]c2ccccc12)C(=O)N[C@@H](CCCC)C(=O)N(C)[C@@H](CC(=O)O)C(=O)N[C@@H](Cc1ccccc1)C(N)=O (X1-[Nle]GW[Nle][NMeD]F-NH2) | 15.5 | 9.12 |  |  |  |  | 3020 | 195 |
| CCCC[C@H](NC(=O)Cc1ccc(O)cc1)C(=O)NCC(=O)N[C@@H](Cc1c[nH]c2ccccc12)C(=O)N[C@@H](CCCC)C(=O)N(C)[C@@H](CC(=O)O)C(=O)N(C)[C@@H](Cc1ccccc1)C(N)=O (X1-[Nle]GW[Nle][NMeD][NMeF]-NH2) | 42.7 | 8.51 |  |  |  |  | > 10000 | > 1000 |
| CCCC[C@H](NC(=O)Cc1ccc(O)cc1)C(=O)NCC(=O)N[C@@H](Cc1c[nH]c2ccccc12)C(=O)N[C@@H](CCCC)C(=O)N(C)[C@H](CC(=O)O)C(=O)N[C@@H](Cc1ccccc1)C(N)=O (X1-[Nle]GW[Nle][dNMeD]F-NH2) | 7.08 | 1.55 |  |  |  |  | > 10000 | > 1000 |
| CCCC[C@H](NC(=O)[C@H](Cc1c[nH]c2ccccc12)NC(=O)CNC(=O)[C@H](CC(C)C)NC(=O)[C@H](Cc1ccc(CS(=O)(=O)O)cc1)NC(=O)[C@H](CC(=O)O)NC(=O)COCCOCCNC(=O)COCCOCCNC(=O)CC[C@H](NC(=O)CCCCCCCCCCCCCCC(=O)O)C(=O)O)C(=O)N(C)[C@H](CC(=O)O)C(=O)N(C)[C@@H](Cc1ccccc1)C(N)=O ({C16 diacid-γGlu-AEEA-AEEA}-D[Phe(4-CH2SO3H)]LGW[Nle][dNMeD][NMeF]-NH2) |  | 0.191 |  |  |  |  |  |  |
| CCCC[C@H](NC(=O)[C@H](Cc1c[nH]c2ccccc12)NC(=O)CNC(=O)[C@H](CC(C)C)NC(=O)[C@@H](NC(=O)[C@H](CC(=O)O)NC(=O)COCCOCCNC(=O)COCCOCCNC(=O)CC[C@H](NC(=O)CCCCCCCCCCCCCCCCC(=O)O)C(=O)O)[C@@H](C)CC)C(=O)N(C)[C@@H](CC(=O)O)C(=O)N(C)[C@@H](Cc1ccccc1)C(N)=O ({C18 diacid-γGlu-AEEA-AEEA}-DILGW[Nle][NMeD][NMeF]-NH2) |  |  | 8.37 | < 5 | 9.41 | < 6 |  |  |
| CCCC[C@H](NC(=O)[C@H](Cc1c[nH]c2ccccc12)NC(=O)CNC(=O)[C@H](CC(C)C)NC(=O)[C@H](Cc1c[nH]c2ccccc12)NC(=O)[C@H](CC(=O)O)NC(=O)COCCOCCNC(=O)COCCOCCNC(=O)CC[C@H](NC(=O)CCCCCCCCCCCCCCCCC(=O)O)C(=O)O)C(=O)N(C)[C@@H](CC(=O)O)C(=O)N(C)[C@@H](Cc1ccccc1)C(N)=O ({C18 diacid-γGlu-AEEA-AEEA}-DWLGW[Nle][NMeD][NMeF]-NH2) |  |  | 8.57 | 5.13 | 9.67 | < 6 |  |  |
| CC(C)C[C@H](NC(=O)[C@H](Cc1ccc(OS(=O)(=O)O)cc1)NC(=O)[C@H](CC(=O)O)NC(=O)COCCOCCNC(=O)COCCOCCNC(=O)CC[C@H](NC(=O)CCCCCCCCCCCCCCCCC(=O)O)C(=O)O)C(=O)NCC(=O)N[C@@H](Cc1c[nH]c2ccccc12)C(=O)N[C@@H](C)C(=O)N(C)[C@H](CC(=O)O)C(=O)N(C)[C@@H](Cc1ccccc1)C(N)=O ({C18 diacid-γGlu-AEEA-AEEA}-D[sY]LGWA[dNMeD][NMeF]-NH2) | 0.617 | 0.166 |  |  |  |  |  |  |
